Experimental data published in patent US20110104080A1, “Oral Compositions for Treatment of Dry Mouth” (priority 2009, published 2011).

Test: Water gain (moisture uptake) of treated cotton swatches, no rinse / with rinse
Assay type: physicochemical
Conditions: dried
Protocol: Table 2: Water gain (mg) for cotton swatches with different treatments. […] No-rinse samples were treated, dried then incubated to monitor moisture uptake. With rinse samples were treated, rinsed with water, dried then incubated to monitor moisture uptake. Control represents swatches treated with water only.
For table 2, the test method is as follows: For “no rinse”: 1×1 cm cotton swatches (triplicates) are placed into a weigh boat where each is labeled according to treatment type and number. Initial weights are recorded for each sample. 500 uL of polymer solution is applied to each cotton swatch sample then reweighed as wet weight. Samples are allowed to dry overnight at room temperature conditions. Sample weights are recorded in the following morning as “no rinse”. Samples are then placed on a tray in the incubator at 37° C., 3.3% CO2, and approximately 90% humidity (the metal tray at the bottom of the incubator has plenty of distilled water in the pan to ensure constant humidity). Opening and closing the incubator door frequently causes parameters to shift so minimizing this will ensure proper control over parameter. Samples are incubated for 8 hours then reweighed. The weights represent the moisture uptake ability for the treated samples. […] Samples are weighed and placed in the incubator the following morning similar to above described procedure and weights are recorded as “with rinse”.

## OCC(O)CO [40% glycerin, glycerin]
No Rinse, incubated 8 hours at 37° C., approximately 90% humidity
  Water gain: 393.3 mg
With Rinse, rinsed with water, then incubated
  Water gain: 126.9 mg
